Assay results: patent US8431581B2, “Imidazopyrimidines and uses thereof” (priority 2008, dated 2013)
pEC50: −log10 of the molar value. Where two headings read alike, the source gives them in different places.

System: HIV-1 reporter virus, integrase Q148H/G140S (QHGS)
Assay: Luciferase reporter virus infectivity assay, QHGS mutant
Type: cell-based
Details: read-out: EC50 against the QHGS mutant
Description: Infectivity assays using reporter viruses derived from lentiviral vectors capable of a single round of infection were used to determine the activity (EC50) of compounds. The DNA used to generate viruses for infection was the full-length HIV-1 genome which had been envelope-deleted. In addition, a reporter gene (the firefly luciferase gene from Photinus pyralis) was cloned into the nef region of the HIV backbone for ease of assay readout. […]. Culture supernatants containing VSV-G pseudotyped virions were harvested 64 h post transfection, clarified by centrifugation to remove cell debris, and frozen at −70° C. until use.
HIV integrase was mutated within a shuttle vector (pGEM) containing the majority of the HIV-1 gag and pol sequence using site-directed mutagenesis to generate sequences that are known to confer resistance to published integrase inhibitors. These include but are not limited to mutations such as Q148H/G140S (in tables 2 and 3 # QHGS), N155H/E92Q (in table 2 # NHEQ), F121Y/T124K (in table 2 FYTK), Y143R (in table 2 # Y143R) and the triple mutant Q148K/G140A/E138A. (in table 2 # QKGAEA). The mutated integrase coding region within the shuttle vector was sequence verified, and then exchanged for the wild-type (WT) coding sequence in the reporter virus DNA backbone.
293T cells were plated out at 12000 cells per well in CellView 96-well cell culture plates (Invitrogen) 16 h prior to compound addition. Compounds were preincubated with cells for 4 h at 37° C. prior to the addition of virus sufficient to generate approximately 10000 Luciferase light units (as measured by the Victor Wallace luminometer) upon assaying using the Bright-Glo™ reagent (Promega) according to the manufacturer's instructions at 48 h post infection.

[1] = Human immunodeficiency virus 1, HEK-293T

Molecule | pEC50 (293T cells, Q148H/G140S reporter virus, Table 3) | pEC50 [1]
6-Benzyloxy-1-[2-(2,6-dimethyl-morpholin-4-yl)-2-oxo-ethyl]-7-[5-(4-fluoro-2-methylsulfanyl-benzyl)-thiazol-2-yl]-1H-imidazo[1,2-a]pyrimidin-5-one [Example 168] | 6.00 to 6.30 | –
COC(=O)c1cc(F)ccc1Cc1cnc(-c2nc3n(CC(=O)N4C[C@H](C)O[C@@H](C)C4)ccn3c(=O)c2O)s1 (stereo in doubt) [Example 58, 2-(2-{1-[2-(2,6-Dimethyl-morpholin-4-yl)-2-oxo-ethyl]-6-hydroxy-5-oxo-1,5-dihydro-imidazo[1,2-a]pyrimidin-7-yl}-thiazol-5-ylmethyl)-5-fluoro-benzoic acid methyl ester] | – | 6.00 to 6.30
C[C@H]1CN(C(=O)Cn2ccn3c(=O)c(O)c(-c4ncc(Cc5ccc(F)cc5S(=O)(=O)N(C)C)s4)nc23)C[C@H](C)O1 (stereo in doubt) [Example 104, 2-(2-{1-[2-(2,6-Dimethyl-morpholin-4-yl)-2-oxo-ethyl]-6-hydroxy-5-oxo-1,5-dihydro-imidazo[1,2-a]pyrimidin-7-yl}-thiazol-5-ylmethyl)-5-fluoro-N,N-dimethyl-benzenesulfonamide] | – | > 6.30
C[C@@H]1CN(C(=O)Cn2ccn3c(=O)c(O)c(-c4ncc(Cc5ccc(F)cc5S(C)(=O)=O)s4)nc23)C[C@@H](C)O1 (stereo in doubt) [Example 138, 1-[2-(2,6-Dimethyl-morpholin-4-yl)-2-oxo-ethyl]-7-[5-(4-fluoro-2-methanesulfonyl-benzyl)-thiazol-2-yl]-6-hydroxy-1H-imidazo[1,2-a]pyrimidin-5-one] | – | 6.00 to 6.30
C[C@@H]1C[C@@H](C)CN(C(=O)Cn2ccn3c(=O)c(O)c(-c4ncc(Cc5ccc(F)cc5)s4)nc23)C1 (stereo in doubt) [Example 180, 1-[2-(3,5-Dimethyl-piperidin-1-yl)-2-oxo-ethyl]-7-[5-(4-fluoro-benzyl)-thiazol-2-yl]-6-hydroxy-1H-imidazo[1,2-a]pyrimidin-5-one] | – | 6.00 to 6.30
C[C@H]1CN(C(=O)Cn2cc(N3CCCS3(=O)=O)n3c(=O)c(O)c(-c4ncc(Cc5ccc(F)cc5)s4)nc23)C[C@H](C)O1 [Example 75, 1-[2-(2,6-Dimethyl-morpholin-4-yl)-2-oxo-ethyl]-3-(1,1-dioxo-1l6-isothiazolidin-2-yl)-7-[5-(4-fluoro-benzyl)-thiazol-2-yl]-6-hydroxy-1H-imidazo[1,2-a]pyrimidin-5-one] | – | 6.00 to 6.30
CC1CCCCN1C(=O)Cn1ccn2c(=O)c(O)c(-c3ncc(Cc4ccc(F)cc4)s3)nc12 (stereo not shown) [Example 126, 7-(5-(4-fluorobenzyl)thiazol-2-yl)-6-hydroxy-1-(2-(2-methylpiperidin-1-yl)-2-oxoethyl)imidazo[1,2-a]pyrimidin-5(1H)-one] | – | 6.00 to 6.30
CC1CCN(C(=O)Cn2ccn3c(=O)c(O)c(-c4ncc(Cc5ccc(F)cc5)s4)nc23)CC1 [Example 157, 7-[5-(4-Fluoro-benzyl)-thiazol-2-yl]-6-hydroxy-1-[2-(4-methyl-piperidin-1-yl)-2-oxo-ethyl]-1H-imidazo[1,2-a]pyrimidin-5-one] | – | 6.00 to 6.30
O=C(NCc1ccc(Cl)c(Cl)c1)c1nc2n(CC(=O)N3CCCCC3)cc(CN3CCOCC3)n2c(=O)c1O [Example 181, 6-Hydroxy-3-morpholin-4-ylmethyl-5-oxo-1-(2-oxo-2-piperidin-1-yl-ethyl)-1,5-dihydro-imidazo[1,2-a]pyrimidine-7-carboxylic acid 3,4-dichloro-benzylamide] | – | 6.00 to 6.30
C[C@H]1CN(C(=O)Cn2ccn3c(=O)c(O)c(-c4ncc(Cc5ccc(F)cc5)s4)nc23)C[C@H](C)O1 [Example 182, 1-[2-((2S,6S)-2,6-Dimethyl-morpholin-4-yl)-2-oxo-ethyl]-7-[5-(4-fluoro-benzyl)-thiazol-2-yl]-6-hydroxy-1H-imidazo[1,2-a]pyrimidin-5-one] | – | > 6.30
CN1CCC(n2ccn3c(=O)c(O)c(-c4ncc(Cc5ccc(F)cc5)s4)nc23)C1=O (stereo not shown) [Example 183, 7-[5-(4-Fluoro-benzyl)-thiazol-2-yl]-6-hydroxy-1-(1-methyl-2-oxo-pyrrolidin-3-yl)-1H-imidazo[1,2-a]pyrimidin-5-one] | – | 6.00 to 6.30
CC1CN(C(=O)C(C)n2ccn3c(=O)c(O)c(-c4ncc(Cc5ccc(F)cc5)s4)nc23)CC(C)O1 (stereo not shown) [Example 184, 1-[2-(2,6-Dimethyl-morpholin-4-yl)-1-methyl-2-oxo-ethyl]-7-[5-(4-fluoro-benzyl)-thiazol-2-yl]-6-hydroxy-1H-imidazo[1,2-a]pyrimidin-5-one] | – | 5.00 to 6.00
O=C(Cn1ccn2c(=O)c(O)c(-c3ncc(Cc4ccc(F)cc4)s3)nc12)N1CC2CCC1C2 (stereo not shown) [Example 185, 1-[2-(2-Aza-bicyclo[2.2.1]hept-2-yl)-2-oxo-ethyl]-7-[5-(4-fluoro-benzyl)-thiazol-2-yl]-6-hydroxy-1H-imidazo[1,2-a]pyrimidin-5-one] | – | 5.00 to 6.00
C[C@@H]1CN(C(=O)Cn2cc(N3CCCS3(=O)=O)n3c(=O)c(O)c(C(=O)NCc4ccc(F)cc4S(=O)(=O)N(C)C)nc23)C[C@@H](C)O1 [Example 186, 1-[2-((2R,6R)-2,6-Dimethyl-morpholin-4-yl)-2-oxo-ethyl]-3-(1,1-dioxo-1lambda*6*-isothiazolidin-2-yl)-6-hydroxy-5-oxo-1,5-dihydro-imidazo[1,2-a]pyrimidine-7-carboxylic acid 2-dimethylsulfamoyl-4-fluoro-benzylamide] | – | > 6.30
CC1CC(C)CN(C(=O)Cn2cc(N3CCCS3(=O)=O)n3c(=O)c(O)c(C(=O)NCc4ccc(F)cc4S(=O)(=O)N(C)C)nc23)C1 (stereo not shown) [Example 187, 1-[2-(3,5-Dimethyl-piperidin-1-yl)-2-oxo-ethyl]-3-(1,1-dioxo-1lambda*6*-isothiazolidin-2-yl)-6-hydroxy-5-oxo-1,5-dihydro-imidazo[1,2-a]pyrimidine-7-carboxylic acid 2-dimethylsulfamoyl-4-fluoro-benzylamide] | – | > 6.30
CN(C)S(=O)(=O)c1cc(F)ccc1CNC(=O)c1nc2n(CC(=O)N3CCCCC3)cc(N3CCCS3(=O)=O)n2c(=O)c1O [Example 188, 3-(1,1-Dioxo-1lambda*6*-isothiazolidin-2-yl)-6-hydroxy-5-oxo-1-(2-oxo-2-piperidin-1-yl-ethyl)-1,5-dihydro-imidazo[1,2-a]pyrimidine-7-carboxylic acid 2-dimethylsulfamoyl-4-fluoro-benzylamide] | – | > 6.30
CC1CCCCN1C(=O)Cn1cc(N2CCCS2(=O)=O)n2c(=O)c(O)c(C(=O)NCc3ccc(F)cc3S(=O)(=O)N(C)C)nc12 (stereo not shown) [Example 189, 3-(1,1-Dioxo-1lambda*6*-isothiazolidin-2-yl)-6-hydroxy-1-[2-(2-methyl-piperidin-1-yl)-2-oxo-ethyl]-5-oxo-1,5-dihydro-imidazo[1,2-a]pyrimidine-7-carboxylic acid 2-dimethylsulfamoyl-4-fluoro-benzylamide] | – | 6.00 to 6.30
CC1CC(C)CN(C(=O)Cn2cc(N3CCCS3(=O)=O)n3c(=O)c(O)c(C(=O)NCc4ccc(Cl)c(Cl)c4)nc23)C1 (stereo not shown) [Example 190, 1-[2-(3,5-Dimethyl-piperidin-1-yl)-2-oxo-ethyl]-3-(1,1-dioxo-1lambda*6*-isothiazolidin-2-yl)-6-hydroxy-5-oxo-1,5-dihydro-imidazo[1,2-a]pyrimidine-7-carboxylic acid 3,4-dichloro-benzylamide] | – | 6.00 to 6.30
CSCc1cn(CC(=O)N2CC(C)CC(C)C2)c2nc(C(=O)NCc3ccc(Cl)c(Cl)c3)c(O)c(=O)n12 (stereo not shown) [Example 191, 1-[2-(3,5-Dimethyl-piperidin-1-yl)-2-oxo-ethyl]-6-hydroxy-3-methylsulfanylmethyl-5-oxo-1,5-dihydro-imidazo[1,2-a]pyrimidine-7-carboxylic acid 3,4-dichloro-benzylamide] | – | 5.00 to 6.00
CSCc1cn(CC(=O)N2CC(C)CC(C)C2)c2nc(C(=O)NCc3ccc(F)cc3S(=O)(=O)N(C)C)c(O)c(=O)n12 (stereo not shown) [Example 192, 1-[2-(3,5-Dimethyl-piperidin-1-yl)-2-oxo-ethyl]-6-hydroxy-3-methylsulfanylmethyl-5-oxo-1,5-dihydro-imidazo[1,2-a]pyrimidine-7-carboxylic acid 2-dimethylsulfamoyl-4-fluoro-benzylamide] | – | > 6.30
CC1CC(C)CN(C(=O)Cn2cc(CS(C)(=O)=O)n3c(=O)c(O)c(C(=O)NCc4ccc(Cl)c(Cl)c4)nc23)C1 (stereo not shown) [Example 193, 1-[2-(3,5-Dimethyl-piperidin-1-yl)-2-oxo-ethyl]-6-hydroxy-3-methanesulfonylmethyl-5-oxo-1,5-dihydro-imidazo[1,2-a]pyrimidine-7-carboxylic acid 3,4-dichloro-benzylamide] | – | > 6.30
CC1CC(C)CN(C(=O)Cn2cc(CS(C)(=O)=O)n3c(=O)c(O)c(C(=O)NCc4ccc(F)cc4S(=O)(=O)N(C)C)nc23)C1 (stereo not shown) [Example 194, 1-[2-(3,5-Dimethyl-piperidin-1-yl)-2-oxo-ethyl]-6-hydroxy-3-methanesulfonylmethyl-5-oxo-1,5-dihydro-imidazo[1,2-a]pyrimidine-7-carboxylic acid 2-dimethylsulfamoyl-4-fluoro-benzylamide] | – | > 6.30
